Experimental data from ChEMBL document CHEMBL1201861, “Genomics of Drug Sensitity in Cancer screening data, Wellcome Trust Sanger Institute”.

Key:
UACC-62 = experiment: cells; format: functional, cell-based, Homo sapiens; details: Homo sapiens, UACC-62;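 also: growth inhibition of human UACC-62 cells, read out by a cell viability assay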
Description: SANGER: Inhibition of human UACC-62 cell growth in a cell viability assay.

KG-1 = experiment: cells; format: functional, cell-based, Homo sapiens; details: Homo sapiens, KG-1;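 also: growth inhibition of KG-1 cells, read out by a cell viability assay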
Description: SANGER: Inhibition of human KG-1 cell growth in a cell viability assay.

MC116 = experiment: cells; format: functional, cell-based, Homo sapiens; details: Homo sapiens, MC116;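 also: growth inhibition of MC116 cells, read out with a cell viability assay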
Description: SANGER: Inhibition of human MC116 cell growth in a cell viability assay.

HuP-T4 = experiment: cells; format: functional, cell-based, Homo sapiens; details: Homo sapiens, HuP-T4;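 also: cell viability assay measuring how much HuP-T4 cell growth is inhibited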
Description: SANGER: Inhibition of human HuP-T4 cell growth in a cell viability assay.

LB1047-RCC = experiment: cells; format: functional, cell-based, Homo sapiens; details: Homo sapiens, LB1047-RCC
Description: SANGER: Inhibition of human LB1047-RCC cell growth in a cell viability assay.

EW-13 = experiment: cells; format: functional, cell-based, Homo sapiens; details: Homo sapiens, EW-13;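 also: growth inhibition of EW-13 cells, read out with a cell viability assay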
Description: SANGER: Inhibition of human EW-13 cell growth in a cell viability assay.

SNB-75 = experiment: cells; format: functional, cell-based, Homo sapiens; details: Homo sapiens, SNB-75;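 also: cell viability assay measuring growth inhibition of human SNB-75 cells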
Description: SANGER: Inhibition of human SNB75 cell growth in a cell viability assay.

NCI-H358 = experiment: cells; format: functional, cell-based, Homo sapiens; details: Homo sapiens, NCI-H358;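 also: growth inhibition of NCI-H358 human cells, read out with a cell viability assay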
Description: SANGER: Inhibition of human NCI-H358 cell growth in a cell viability assay.

LOUCY = experiment: cells; format: functional, cell-based, Homo sapiens; details: Homo sapiens, LOUCY;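 also: growth inhibition of human LOUCY cells, read out with a cell viability assay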
Description: SANGER: Inhibition of human LOUCY cell growth in a cell viability assay.

CP50-MEL-B = experiment: cells; format: functional, cell-based, Homo sapiens; details: Homo sapiens, CP50-MEL-B;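 also: growth inhibition of the human cell line, measured with a cell viability read-out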
Description: SANGER: Inhibition of human CP50-MEL-B cell growth in a cell viability assay.

P12-Ichikawa = experiment: cells; format: functional, cell-based, Homo sapiens; details: Homo sapiens, P12-Ichikawa
SK-PN-DW = experiment: cells; format: functional, cell-based, Homo sapiens; details: Homo sapiens, SK-PN-DW;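 also: growth inhibition measured with a viability assay on these cells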
Description: SANGER: Inhibition of human SK-PN-DW cell growth in a cell viability assay.

KYSE-270 = experiment: cells; format: functional, cell-based, Homo sapiens; details: Homo sapiens, KYSE-270;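 also: cell growth inhibition measured with a viability assay in the human KYSE-270 line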
Description: SANGER: Inhibition of human KYSE-270 cell growth in a cell viability assay.

KALS-1 = experiment: cells; format: functional, cell-based, Homo sapiens; details: Homo sapiens, KALS-1;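 also: growth inhibition of KALS-1 cells, determined with a cell viability assay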
Description: SANGER: Inhibition of human KALS-1 cell growth in a cell viability assay.

M14 = experiment: cells; format: functional, cell-based, Homo sapiens; details: Homo sapiens, M14;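 also: growth inhibition of M14 cells, read out with a cell viability assay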
Description: SANGER: Inhibition of human M14 cell growth in a cell viability assay.

BFTC-909 = experiment: cells; format: functional, cell-based, Homo sapiens; details: Homo sapiens, BFTC-909
Description: SANGER: Inhibition of human BFTC-909 cell growth in a cell viability assay.

NCI-H2170 = experiment: cells; format: functional, cell-based, Homo sapiens; details: Homo sapiens, NCI-H2170;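 also: cell viability assay measuring growth inhibition of human NCI-H2170 cancer cells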
Description: SANGER: Inhibition of human NCI-H2170 cell growth in a cell viability assay.

BL-41 = experiment: cells; format: functional, cell-based, Homo sapiens; details: Homo sapiens, BL-41;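 also: growth inhibition of human BL-41 cells, read out with a cell viability assay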
Description: SANGER: Inhibition of human BL-41 cell growth in a cell viability assay.

A204 = experiment: cells; format: functional, cell-based, Homo sapiens; details: Homo sapiens, A204;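 also: growth inhibition of human A204 cells, read out with a cell viability assay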
Description: SANGER: Inhibition of human A204 cell growth in a cell viability assay.

NCI-H441 = experiment: cells; format: functional, cell-based, Homo sapiens; details: Homo sapiens, NCI-H441;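 also: growth inhibition of NCI-H441 cells, read out with a cell viability assay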
Description: SANGER: Inhibition of human NCI-H441 cell growth in a cell viability assay.

C8166 = experiment: cells; format: functional, cell-based, Homo sapiens; details: Homo sapiens, C8166;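 also: growth inhibition of human C8166 cells measured by a cell viability assay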
Description: SANGER: Inhibition of human C8166 cell growth in a cell viability assay.

HCE-4 = experiment: cells; format: functional, cell-based, Homo sapiens; details: Homo sapiens, HCE-4;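 also: cell viability assay measuring inhibition of growth in the human HCE-4 cell line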
Description: SANGER: Inhibition of human HCE-4 cell growth in a cell viability assay.

COR-L279 = experiment: SANGER: Inhibition of human COR-L279 cell growth in a cell viability assay.; format: functional, cell-based; details: Homo sapiens, COR-L279
CAL-33 = experiment: cells; format: functional, cell-based, Homo sapiens; details: Homo sapiens, CAL-33;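 also: growth inhibition of CAL-33 cells, read out with a cell viability assay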
Description: SANGER: Inhibition of human CAL-33 cell growth in a cell viability assay.

NCI-H2122 = experiment: cells; format: functional, cell-based, Homo sapiens; details: Homo sapiens, NCI-H2122;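 also: growth inhibition of the cells, read out with a cell viability assay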
Description: SANGER: Inhibition of human NCI-H2122 cell growth in a cell viability assay.

SCC-3 = experiment: cells; format: functional, cell-based, Homo sapiens; details: Homo sapiens, SCC-3;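 also: cell viability assay measuring inhibition of SCC-3 cell growth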
Description: SANGER: Inhibition of human SCC-3 cell growth in a cell viability assay.

L-363 = experiment: cells; format: functional, cell-based, Homo sapiens; details: Homo sapiens, L-363
Description: SANGER: Inhibition of human L-363 cell growth in a cell viability assay.

SK-MEL-30 = experiment: cells; format: functional, cell-based, Homo sapiens; details: Homo sapiens, SK-MEL-30;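 also: growth inhibition of SK-MEL-30 cells, determined with a cell viability assay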
Description: SANGER: Inhibition of human SK-MEL-30 cell growth in a cell viability assay.

CESS = experiment: SANGER: Inhibition of human CESS cell growth in a cell viability assay.; format: functional, cell-based; details: Homo sapiens, CESS
SK-N-DZ = experiment: cells; format: functional, cell-based, Homo sapiens; details: Homo sapiens, SK-N-DZ;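 also: growth inhibition of the cancer cell line, read out through a viability assay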
Description: SANGER: Inhibition of human SK-N-DZ cell growth in a cell viability assay.

SW1463 = experiment: cells; format: functional, cell-based, Homo sapiens; details: Homo sapiens, SW1463;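 also: growth inhibition of SW1463 cells, determined with a cell viability assay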
Description: SANGER: Inhibition of human SW1463 cell growth in a cell viability assay.

SNU-5 = experiment: cells; format: functional, cell-based, Homo sapiens; details: Homo sapiens, SNU-5;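 also: cell viability readout used to measure growth inhibition in human NCI-SNU-5 cells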
Description: SANGER: Inhibition of human NCI-SNU-5 cell growth in a cell viability assay.

MG-63 = experiment: cells; format: functional, cell-based, Homo sapiens; details: Homo sapiens, MG-63;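 also: growth inhibition of human MG-63 cells, read out with a cell viability assay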
Description: SANGER: Inhibition of human MG-63 cell growth in a cell viability assay.

SNU-423 = experiment: cells; format: functional, cell-based, Homo sapiens; details: Homo sapiens, SNU-423
Description: SANGER: Inhibition of human SNU-423 cell growth in a cell viability assay.

RVH-421 = experiment: cells; format: functional, cell-based, Homo sapiens; details: Homo sapiens, RVH-421
Description: SANGER: Inhibition of human RVH-421 cell growth in a cell viability assay.

D-392MG = experiment: cells; format: functional, cell-based, Homo sapiens; details: Homo sapiens, D-392MG
NCCIT = experiment: SANGER: Inhibition of human NCCIT cell growth in a cell viability assay.; format: functional, cell-based; details: Homo sapiens, NCCIT
ACHN = experiment: cells; format: functional, cell-based, Homo sapiens; details: Homo sapiens, ACHN;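 also: cell viability read-out used to gauge how strongly growth of human ACHN cells is suppressed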
Description: SANGER: Inhibition of human ACHN cell growth in a cell viability assay.

ES7 = experiment: cells; format: functional, cell-based, Homo sapiens; details: Homo sapiens, ES7;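 also: growth inhibition of cultured human ES7 cells, read out as cell viability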
Description: SANGER: Inhibition of human ES7 cell growth in a cell viability assay.

LB771-HNC = experiment: cells; format: functional, cell-based, Homo sapiens; details: Homo sapiens, LB771-HNC;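 also: growth inhibition of LB771-HNC human cells, read out with a cell viability assay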
Description: SANGER: Inhibition of human LB771-HNC cell growth in a cell viability assay.

COLO-678 = experiment: cells; format: functional, cell-based, Homo sapiens; details: Homo sapiens, COLO-678
Description: SANGER: Inhibition of human COLO-678 cell growth in a cell viability assay.

SK-HEP1 = experiment: cells; format: functional, cell-based, Homo sapiens, SK-HEP-1; details: Homo sapiens, SK-HEP1;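 also: cell viability readout used to quantify reduction in proliferation of human SK-HEP-1 cells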
Description: SANGER: Inhibition of human SK-HEP-1 cell growth in a cell viability assay.

NCI-H1623 = experiment: cells; format: functional, cell-based, Homo sapiens; details: Homo sapiens, NCI-H1623;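 also: cell viability assay used as the read-out for growth inhibition of NCI-H1623 cells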
Description: SANGER: Inhibition of human NCI-H1623 cell growth in a cell viability assay.

KINGS-1 = experiment: cells; format: functional, cell-based, Homo sapiens; details: Homo sapiens, KINGS-1;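 also: cell viability assay measuring suppression of KINGS-1 cell growth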
Description: SANGER: Inhibition of human KINGS-1 cell growth in a cell viability assay.

BCPAP = experiment: cells; format: functional, cell-based, Homo sapiens; details: Homo sapiens, BCPAP;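 also: growth inhibition of BCPAP cells, read out in a cell viability assay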
Description: SANGER: Inhibition of human BCPAP cell growth in a cell viability assay.

NCI-H719 = experiment: cells; format: functional, cell-based, Homo sapiens; details: Homo sapiens, NCI-H719;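 also: growth inhibition of the cultured cell line, read out with a viability assay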
Description: SANGER: Inhibition of human NCI-H719 cell growth in a cell viability assay.

Question: What does the source list for `C=C(c1ccc(C(=O)O)cc1)c1cc2c(cc1C)C(C)(C)CCC2(C)C` [BEXAROTENE]?
Answer: IC50 (UACC-62): > 8 µM; IC50 (KG-1): > 8 µM; IC50 (MC116): > 8 µM; IC50 (HuP-T4): > 8 µM; IC50 (LB1047-RCC): > 8 µM; IC50 (EW-13): 0.485 µM; IC50 (SNB-75): > 8 µM; IC50 (NCI-H358): > 8 µM; IC50 (LOUCY): > 8 µM; IC50 (CP50-MEL-B): > 8 µM; IC50 (P12-Ichikawa): > 8 µM; IC50 (SK-PN-DW): > 8 µM; IC50 (KYSE-270): > 8 µM; IC50 (KALS-1): > 8 µM; IC50 (M14): > 8 µM; IC50 (BFTC-909): > 8 µM; IC50 (NCI-H2170): > 8 µM; IC50 (BL-41): > 8 µM; IC50 (A204): > 8 µM; IC50 (NCI-H441): > 8 µM; IC50 (C8166): > 8 µM; IC50 (HCE-4): > 8 µM; IC50 (COR-L279): > 8 µM; IC50 (CAL-33): > 8 µM; IC50 (NCI-H2122): 4.94 µM; IC50 (SCC-3): > 8 µM; IC50 (L-363): > 8 µM; IC50 (SK-MEL-30): > 8 µM; IC50 (CESS): > 8 µM; IC50 (SK-N-DZ): > 8 µM; IC50 (SW1463): > 8 µM; IC50 (SNU-5): > 8 µM; IC50 (MG-63): 0.789 µM; IC50 (SNU-423): > 8 µM; IC50 (RVH-421): > 8 µM; IC50 (D-392MG): > 8 µM; IC50 (NCCIT): > 8 µM; IC50 (ACHN): > 8 µM; IC50 (ES7): > 8 µM; IC50 (LB771-HNC): 2.5 µM; IC50 (COLO-678): > 8 µM; IC50 (SK-HEP1): > 8 µM; IC50 (NCI-H1623): > 8 µM; IC50 (KINGS-1): > 8 µM; IC50 (BCPAP): > 8 µM; IC50 (NCI-H719): > 8 µM

Question: What does the source list for `CCC/C=C/C=C/C(=O)O[C@H]1/C(=C/C(=O)OC)C[C@H]2C[C@H]([C@@H](C)O)OC(=O)C[C@H](O)C[C@@H]3C[C@H](OC(C)=O)C(C)(C)[C@](O)(C[C@@H]4C/C(=C/C(=O)OC)C[C@H](/C=C/C(C)(C)[C@]1(O)O2)O4)O3` [BRYOSTATIN 1]?
Answer: IC50 (UACC-62): > 0.008 µM; IC50 (KG-1): > 0.008 µM; IC50 (MC116): > 0.008 µM; IC50 (HuP-T4): > 0.008 µM; IC50 (LB1047-RCC): > 0.008 µM; IC50 (EW-13): > 0.008 µM; IC50 (SNB-75): > 0.008 µM; IC50 (NCI-H358): > 0.008 µM; IC50 (LOUCY): > 0.008 µM; IC50 (CP50-MEL-B): > 0.008 µM; IC50 (P12-Ichikawa): > 0.008 µM; IC50 (SK-PN-DW): > 0.008 µM; IC50 (KYSE-270): > 0.008 µM; IC50 (KALS-1): > 0.008 µM; IC50 (M14): > 0.008 µM; IC50 (BFTC-909): > 0.008 µM; IC50 (NCI-H2170): > 0.008 µM; IC50 (BL-41): > 0.008 µM; IC50 (A204): > 0.008 µM; IC50 (NCI-H441): > 0.008 µM; IC50 (C8166): > 0.008 µM; IC50 (HCE-4): > 0.008 µM; IC50 (COR-L279): > 0.008 µM; IC50 (CAL-33): > 0.008 µM; IC50 (NCI-H2122): > 0.008 µM; IC50 (SCC-3): > 0.008 µM; IC50 (L-363): > 0.008 µM; IC50 (SK-MEL-30): > 0.008 µM; IC50 (CESS): > 0.008 µM; IC50 (SK-N-DZ): > 0.008 µM; IC50 (SW1463): > 0.008 µM; IC50 (SNU-5): > 0.008 µM; IC50 (MG-63): > 0.008 µM; IC50 (SNU-423): > 0.008 µM; IC50 (RVH-421): > 0.008 µM; IC50 (D-392MG): > 0.008 µM; IC50 (NCCIT): > 0.008 µM; IC50 (ACHN): > 0.008 µM; IC50 (ES7): > 0.008 µM; IC50 (LB771-HNC): > 0.008 µM; IC50 (COLO-678): > 0.008 µM; IC50 (SK-HEP1): > 0.008 µM; IC50 (NCI-H1623): > 0.008 µM; IC50 (KINGS-1): > 0.008 µM; IC50 (BCPAP): > 0.008 µM; IC50 (NCI-H719): > 0.008 µM
